Data reported in PubChem BioAssay AID2060483 (Molecular Pharmacology Branch, DTP, NCI, 2025).

Test system: K24384-001-R-PDC complex spheroids, viability
Test: Anticancer human tumor K24384-001-R-PDC patient-derived pancreatic adenocarcinoma cell line growth inhibition [GQUAD]
Conditions: for IC50: curve of first compound; for viability, T/C: stronger effect = lower value; active = viability on the fitted dose curve at most 10% of control; inactive = the rest
Procedure, shortened: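 Multi-cell-type spheroids of tumor cells with HUVEC and mesenchymal stem cells, treated with drug combinations. Concentrations descend in half-log steps from near clinical Cmax, or from 10 microM where Cmax is unknown; viability read-out.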

[1] = second compound 0.0316 µM, first compound 0.0316 µM
[2] = second compound 0.0316 µM, first compound 0.1 µM
[3] = second compound 0.0316 µM, first compound 0.316 µM
[4] = second compound 0.0316 µM, first compound 1 µM
[5] = second compound 0.0316 µM, first compound 3.16 µM
[6] = second compound 0.0316 µM, first compound 10 µM
[7] = second compound 0.1 µM, first compound 0.0316 µM
[8] = second compound 0.1 µM, first compound 0.1 µM
[9] = second compound 0.1 µM, first compound 0.316 µM
[10] = second compound 0.1 µM, first compound 1 µM
[11] = second compound 0.1 µM, first compound 3.16 µM
[12] = second compound 0.1 µM, first compound 10 µM
[13] = second compound 0.316 µM, first compound 0.0316 µM
[14] = second compound 0.316 µM, first compound 0.1 µM
[15] = second compound 0.316 µM, first compound 0.316 µM
[16] = second compound 0.316 µM, first compound 1 µM
[17] = second compound 0.316 µM, first compound 3.16 µM
[18] = second compound 0.316 µM, first compound 10 µM
[19] = second compound 1 µM, first compound 0.0316 µM
[20] = second compound 1 µM, first compound 0.1 µM
[21] = second compound 1 µM, first compound 0.316 µM
[22] = second compound 1 µM, first compound 1 µM
[23] = second compound 1 µM, first compound 3.16 µM
[24] = second compound 1 µM, first compound 10 µM
[25] = second compound 3.16 µM, first compound 0.0316 µM
[26] = second compound 3.16 µM, first compound 0.1 µM
[27] = second compound 3.16 µM, first compound 0.316 µM
[28] = second compound 3.16 µM, first compound 1 µM
[29] = second compound 3.16 µM, first compound 3.16 µM
[30] = second compound 3.16 µM, first compound 10 µM
[31] = second compound 10 µM, first compound 0.0316 µM
[32] = second compound 10 µM, first compound 0.1 µM
[33] = second compound 10 µM, first compound 0.316 µM
[34] = second compound 10 µM, first compound 1 µM
[35] = second compound 10 µM, first compound 3.16 µM
[36] = second compound 10 µM, first compound 10 µM
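Also: spheroids exposed to compounds for seven days.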

CC(=O)O[C@H]1C(=O)[C@@]2(C)[C@H]([C@H](OC(=O)c3ccccc3)[C@]3(O)C[C@H](OC(=O)[C@H](O)[C@@H](NC(=O)c4ccccc4)c4ccccc4)C(C)=C1C3(C)C)[C@]1(OC(C)=O)CO[C@@H]1C[C@@H]2O + Cc1[nH]c2ccc(F)cc2c1-c1nc2c3cccnc3c3ncccc3c2[nH]1
inactive: viability, T/C [1] 31.8% | viability, T/C [2] 25% | viability, T/C [3] 21.2% | viability, T/C [4] 16.8% | viability, T/C [5] 24.9% | viability, T/C [6] 28.7% | viability, T/C [7] 42.4% | viability, T/C [8] 23.7% | viability, T/C [9] 19.6% | viability, T/C [10] 18.7% | viability, T/C [11] 22.7% | viability, T/C [12] 27.1% | viability, T/C [13] 40% | viability, T/C [14] 28.3% | viability, T/C [15] 18.6% | viability, T/C [16] 22.3% | viability, T/C [17] 24.5% | viability, T/C [18] 29.1% | viability, T/C [19] 38.1% | viability, T/C [20] 28.2% | viability, T/C [21] 18.5% | viability, T/C [22] 26.1% | viability, T/C [23] 31.6% | viability, T/C [24] 31.4% | viability, T/C [25] 34.6% | viability, T/C [26] 18.9% | viability, T/C [27] 18.5% | viability, T/C [28] 16.7% | viability, T/C [29] 22.9% | viability, T/C [30] 18.1% | viability, T/C [31] 27.6% | viability, T/C [32] 23.2% | viability, T/C [33] 24.1% | viability, T/C [34] 15.4% | viability, T/C [35] 22.2% | viability, T/C [36] 23.1%
< 31.6 nM: IC50 (second compound 0.0316 µM) | IC50 (second compound 0.1 µM) | IC50 (second compound 0.316 µM) | IC50 (second compound 1 µM) | IC50 (second compound 3.16 µM) | IC50 (second compound 10 µM)

COc1cccc2c1C(=O)c1c(O)c3c(c(O)c1C2=O)CC(O)(C(=O)CO)CC3OC1CC(N)C(O)C(C)O1 (stereo not drawn) + Cc1[nH]c2ccc(F)cc2c1-c1nc2c3cccnc3c3ncccc3c2[nH]1
203 nM: IC50 (second compound 0.316 µM)
191 nM: IC50 (second compound 0.0316 µM)
80.1 nM: IC50 (second compound 10 µM)
126 nM: IC50 (second compound 3.16 µM)
active: viability, T/C [5] 5.95% | viability, T/C [6] 4.77% | viability, T/C [12] 4.61% | viability, T/C [17] 6.31% | viability, T/C [18] 4.4% | viability, T/C [23] 7.66% | viability, T/C [24] 4.24% | viability, T/C [30] 1.96% | viability, T/C [35] 5.65% | viability, T/C [36] 1.85%
204 nM: IC50 (second compound 0.1 µM)
219 nM: IC50 (second compound 1 µM)
inactive: viability, T/C [1] 89.8% | viability, T/C [2] 70% | viability, T/C [3] 33.1% | viability, T/C [4] 17.6% | viability, T/C [7] 78.8% | viability, T/C [8] 64.8% | viability, T/C [9] 39.2% | viability, T/C [10] 25.6% | viability, T/C [11] 8.24% | viability, T/C [13] 74.2% | viability, T/C [14] 63.4% | viability, T/C [15] 40.9% | viability, T/C [16] 22.4% | viability, T/C [19] 85.4% | viability, T/C [20] 75.3% | viability, T/C [21] 32.2% | viability, T/C [22] 27.8% | viability, T/C [25] 70.6% | viability, T/C [26] 55.1% | viability, T/C [27] 32% | viability, T/C [28] 28% | viability, T/C [29] 7.01% | viability, T/C [31] 60.5% | viability, T/C [32] 49.3% | viability, T/C [33] 28.1% | viability, T/C [34] 20%

Nc1ccn(C2OC(CO)C(O)C2(F)F)c(=O)n1 (stereo not drawn) + Cc1[nH]c2ccc(F)cc2c1-c1nc2c3cccnc3c3ncccc3c2[nH]1
240 nM: IC50 (second compound 3.16 µM)
215 nM: IC50 (second compound 0.0316 µM)
318 nM: IC50 (second compound 0.316 µM)
110 nM: IC50 (second compound 10 µM)
208 nM: IC50 (second compound 0.1 µM)
inactive: viability, T/C [1] 87.6% | viability, T/C [2] 62.5% | viability, T/C [3] 44.5% | viability, T/C [4] 30.6% | viability, T/C [5] 26.2% | viability, T/C [6] 23.2% | viability, T/C [7] 75.7% | viability, T/C [8] 66.4% | viability, T/C [9] 36.7% | viability, T/C [10] 35.8% | viability, T/C [11] 26.4% | viability, T/C [12] 19.8% | viability, T/C [13] 71.1% | viability, T/C [14] 69.5% | viability, T/C [15] 46.9% | viability, T/C [16] 34.8% | viability, T/C [17] 27.9% | viability, T/C [18] 20.6% | viability, T/C [19] 81.3% | viability, T/C [20] 70% | viability, T/C [21] 42.5% | viability, T/C [22] 38.8% | viability, T/C [23] 33.3% | viability, T/C [24] 22.1% | viability, T/C [25] 69.4% | viability, T/C [26] 60.9% | viability, T/C [27] 41.3% | viability, T/C [28] 43.2% | viability, T/C [29] 25.3% | viability, T/C [30] 19.7% | viability, T/C [31] 54.9% | viability, T/C [32] 52.6% | viability, T/C [33] 39.6% | viability, T/C [34] 30.7% | viability, T/C [35] 19.8% | viability, T/C [36] 15.1%
290 nM: IC50 (second compound 1 µM)

O=c1[nH]cc(F)c(=O)[nH]1 + Cc1[nH]c2ccc(F)cc2c1-c1nc2c3cccnc3c3ncccc3c2[nH]1
479 nM: IC50 (second compound 3.16 µM)
1180 nM: IC50 (second compound 0.316 µM)
inactive: viability, T/C [1] 98.4% | viability, T/C [2] 77.9% | viability, T/C [3] 76.1% | viability, T/C [4] 55.5% | viability, T/C [5] 54.9% | viability, T/C [6] 44.4% | viability, T/C [7] 88.4% | viability, T/C [8] 92.7% | viability, T/C [9] 86.8% | viability, T/C [10] 55.6% | viability, T/C [11] 62.4% | viability, T/C [12] 39.6% | viability, T/C [13] 97% | viability, T/C [14] 90.9% | viability, T/C [15] 66.3% | viability, T/C [16] 53.3% | viability, T/C [17] 43.2% | viability, T/C [18] 39.9% | viability, T/C [19] 88.2% | viability, T/C [20] 93.1% | viability, T/C [21] 66.7% | viability, T/C [22] 59.9% | viability, T/C [23] 54.8% | viability, T/C [24] 36.3% | viability, T/C [25] 69.4% | viability, T/C [26] 56.5% | viability, T/C [27] 51.9% | viability, T/C [28] 53% | viability, T/C [29] 35.5% | viability, T/C [30] 43% | viability, T/C [31] 65.3% | viability, T/C [32] 53.6% | viability, T/C [33] 62.3% | viability, T/C [34] 40.7% | viability, T/C [35] 33.8% | viability, T/C [36] 31.7%
4360 nM: IC50 (second compound 0.0316 µM)
> 10000 nM: IC50 (second compound 0.1 µM)
581 nM: IC50 (second compound 10 µM)
3090 nM: IC50 (second compound 1 µM)
